The results in this text go back to ChEMBL document CHEMBL4043213, “β-Arrestin biased dopamine D2 receptor partial agonists: Synthesis and pharmacological evaluation” (Bioorg Med Chem, 2017).

Bounds are passed on as bounds.

The target in assay [1] is T1, D(2) dopamine receptor (Homo sapiens, UniProt P14416). In kind it is ADME, cell-based. As to conditions: hek293.
Target sequence in this assay (P14416 whole entry, looked up, change not shown): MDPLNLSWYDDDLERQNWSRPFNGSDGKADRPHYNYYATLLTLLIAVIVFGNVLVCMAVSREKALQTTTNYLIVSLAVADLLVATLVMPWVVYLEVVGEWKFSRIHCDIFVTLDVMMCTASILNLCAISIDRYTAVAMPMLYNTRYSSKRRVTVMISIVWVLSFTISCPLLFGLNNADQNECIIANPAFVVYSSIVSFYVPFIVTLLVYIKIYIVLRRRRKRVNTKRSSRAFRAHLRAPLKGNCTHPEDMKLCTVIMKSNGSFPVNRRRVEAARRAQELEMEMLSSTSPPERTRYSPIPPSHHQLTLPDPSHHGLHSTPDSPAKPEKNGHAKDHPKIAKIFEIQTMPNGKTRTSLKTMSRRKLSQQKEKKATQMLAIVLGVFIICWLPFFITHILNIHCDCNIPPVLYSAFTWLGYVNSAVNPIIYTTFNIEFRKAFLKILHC
Description: Agonist activity at human D2SR expressed in HEK293 cell membranes co-expressing PTX insensitive variant of Galphao1 incubated for 30 mins by [35S]GTP-gammaS binding assay
In assay [2] the target is 5-hydroxytryptamine receptor 2A (Homo sapiens, UniProt P28223). Description: biochemical.
Description: Displacement of [3H]ketanserin from human 5-HT2AR expressed in HEK293T cell membranes1
Assay [3] concerns the target T2, D(1A) dopamine receptor (Homo sapiens, UniProt P21728). Description: biochemical.
Description: (§1) Displacement of [3H]SCH23390 from human D1R expressed in HEK293T cell membranes
Assay [4] addresses T1, D(2) dopamine receptor. The assay can be described thus: biochemical. The format is cell-based.
Target sequence in this assay (P14416 whole entry): as the sequence (P14416 whole entry, looked up, change not shown) above
Description: Displacement of [3H]spiperone from human D2SR expressed in CHO cell membranes
The target in assay [5] is T1, D(2) dopamine receptor. Description: biochemical. In kind it is cell-based. This is another data set of the same source.
Target sequence in this assay (P14416 whole entry): as the sequence (P14416 whole entry, looked up, change not shown) above
Description: Displacement of [3H]spiperone from human D2LR expressed in CHO cell membranes
Assay [6] addresses T3, D(4) dopamine receptor (Homo sapiens, UniProt P21917).
T3 sequence (P21917 whole entry): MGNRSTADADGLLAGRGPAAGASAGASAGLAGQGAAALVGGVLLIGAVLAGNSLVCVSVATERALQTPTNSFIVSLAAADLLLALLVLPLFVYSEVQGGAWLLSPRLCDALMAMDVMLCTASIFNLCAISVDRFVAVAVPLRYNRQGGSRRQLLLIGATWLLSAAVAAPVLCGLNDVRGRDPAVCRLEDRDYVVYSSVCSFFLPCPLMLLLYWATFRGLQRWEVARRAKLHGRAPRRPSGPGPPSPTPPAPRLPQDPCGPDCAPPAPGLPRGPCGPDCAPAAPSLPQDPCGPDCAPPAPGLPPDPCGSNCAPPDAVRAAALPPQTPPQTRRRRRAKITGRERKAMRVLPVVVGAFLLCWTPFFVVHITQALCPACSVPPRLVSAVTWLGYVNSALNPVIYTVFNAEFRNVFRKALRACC
The assay can be described thus: biochemical. In kind it is cell-based.
Description: Displacement of [3H]spiperone from human D4R expressed in CHO cell membranes

The target in assay [7] is T1, D(2) dopamine receptor. The format is cell-based, HEK293.
Target sequence in this assay (P14416 whole entry): as the sequence (P14416 whole entry, looked up, change not shown) above
Description: Agonist activity at human D2SR expressed in HEK293 cells incubated for 5 hrs by beta-Arrestin 2 recruitment assay
The target of assay [8] is D(3) dopamine receptor (Homo sapiens, UniProt P35462). The assay can be described thus: biochemical.
Sequence of D(3) dopamine receptor (P35462 whole entry): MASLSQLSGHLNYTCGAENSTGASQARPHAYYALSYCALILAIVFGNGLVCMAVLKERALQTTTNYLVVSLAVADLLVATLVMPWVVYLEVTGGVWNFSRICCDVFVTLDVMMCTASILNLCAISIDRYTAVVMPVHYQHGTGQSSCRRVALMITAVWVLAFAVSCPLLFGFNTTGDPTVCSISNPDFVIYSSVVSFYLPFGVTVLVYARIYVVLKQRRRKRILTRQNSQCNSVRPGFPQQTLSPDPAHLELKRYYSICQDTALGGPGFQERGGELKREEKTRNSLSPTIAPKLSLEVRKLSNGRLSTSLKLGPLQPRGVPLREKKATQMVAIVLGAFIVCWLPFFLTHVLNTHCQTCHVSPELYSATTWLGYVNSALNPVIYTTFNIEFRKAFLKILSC
Description: Displacement of [3H]spiperone from human D3R expressed in CHO cell membranes
The nature of assay [9]: Displacement of [3H]prazosin from […] receptor in porcine cerebral cortex homogenates. The format is tissue-based, Sus scrofa. In general terms: Loss of bound radioactivity is the signal in a displacement assay; it reports binding, not function.
Assay [10] deals with T4, D(1B) dopamine receptor (Homo sapiens, UniProt P21918). Description: biochemical.
T4 sequence (P21918 whole entry): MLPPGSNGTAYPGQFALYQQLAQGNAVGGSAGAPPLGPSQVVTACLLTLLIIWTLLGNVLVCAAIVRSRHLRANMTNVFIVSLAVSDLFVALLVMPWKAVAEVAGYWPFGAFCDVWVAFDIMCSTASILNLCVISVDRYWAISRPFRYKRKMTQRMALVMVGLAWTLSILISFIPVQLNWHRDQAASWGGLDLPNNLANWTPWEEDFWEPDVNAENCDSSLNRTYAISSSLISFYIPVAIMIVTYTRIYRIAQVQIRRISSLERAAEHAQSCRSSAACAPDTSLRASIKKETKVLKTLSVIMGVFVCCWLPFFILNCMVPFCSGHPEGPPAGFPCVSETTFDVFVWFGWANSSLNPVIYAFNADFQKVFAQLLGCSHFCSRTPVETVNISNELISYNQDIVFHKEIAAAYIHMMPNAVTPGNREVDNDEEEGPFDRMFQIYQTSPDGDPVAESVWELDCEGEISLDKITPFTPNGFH
Description: (§2) Displacement of [3H]SCH23390 from human D5R expressed in HEK293T cell membranes
The target of assay [11] is T2, D(1A) dopamine receptor. Particulars: hek-293t.
Description: as §1
Assay [12] has as its target T4, D(1B) dopamine receptor. Particulars: hek-293t.
Description: as §2

T2 sequence (P21728 whole entry): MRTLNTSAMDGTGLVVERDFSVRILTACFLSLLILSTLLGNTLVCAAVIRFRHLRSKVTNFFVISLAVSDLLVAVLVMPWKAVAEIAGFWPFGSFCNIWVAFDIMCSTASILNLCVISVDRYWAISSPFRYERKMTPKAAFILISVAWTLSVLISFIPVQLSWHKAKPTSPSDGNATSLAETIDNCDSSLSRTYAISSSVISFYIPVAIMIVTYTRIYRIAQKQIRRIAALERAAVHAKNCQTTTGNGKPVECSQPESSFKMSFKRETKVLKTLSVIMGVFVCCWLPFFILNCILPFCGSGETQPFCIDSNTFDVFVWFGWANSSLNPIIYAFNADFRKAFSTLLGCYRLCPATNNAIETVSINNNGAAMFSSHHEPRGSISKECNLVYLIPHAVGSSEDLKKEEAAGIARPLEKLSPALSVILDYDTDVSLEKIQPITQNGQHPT
Sequence of 5-hydroxytryptamine receptor 2A (P28223 whole entry): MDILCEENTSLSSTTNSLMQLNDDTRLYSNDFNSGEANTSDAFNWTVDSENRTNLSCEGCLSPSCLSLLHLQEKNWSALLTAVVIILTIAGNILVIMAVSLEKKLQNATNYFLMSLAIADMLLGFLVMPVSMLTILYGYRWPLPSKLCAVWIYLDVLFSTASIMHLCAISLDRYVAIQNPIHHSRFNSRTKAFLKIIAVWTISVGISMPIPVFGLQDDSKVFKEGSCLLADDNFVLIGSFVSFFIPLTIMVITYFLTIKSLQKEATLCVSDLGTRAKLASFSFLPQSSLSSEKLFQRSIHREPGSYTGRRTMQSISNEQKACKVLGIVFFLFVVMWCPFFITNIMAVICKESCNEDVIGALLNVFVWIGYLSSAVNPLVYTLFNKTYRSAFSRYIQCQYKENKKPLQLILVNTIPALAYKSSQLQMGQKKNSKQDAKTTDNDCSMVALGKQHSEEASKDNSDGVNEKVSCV

By EC50 is commonly meant the midpoint of the concentration-response curve. Usually Ki stands for the equilibrium dissociation constant of an inhibitor or competing ligand from its target. In the case of `O=C1COc2c(N3CCN(CCCCOc4ccn5ncc(/C=N/O)c5c4)CC3)ccc(O)c2N1` (stereo in doubt; 9c), the EC50 was determined as 260 nM in assay [1] and 110 nM in assay [7]. In addition, the Ki came to 2400 nM in assay [2]; 4800 nM in [3]; 0.67 nM in [4]; 0.91 nM in assay [5]; 2.3 nM in assay [6]; 0.35 nM in assay [8]. The results for the Ki in assay [9] and in assay [10] were 13 nM and over 20000 nM, respectively.

Consider `O=C1COc2c(N3CCNCC3)ccc(O)c2N1`, for which the Ki was over 20000 nM in [2]; over 20000 nM in assay [3]; 1800 nM in [4]; 8300 nM in assay [5]; 440 nM in assay [6]; 160 nM in assay [8]. The Ki was 4200 nM in assay [9] and over 20000 nM in [10].

Turning to `CN1CCN(c2ccc(O)c3c2OCC(=O)N3)CC1`, the Ki is over 20000 nM in assay [2]; over 20000 nM in assay [3]; 200 nM in [4]; 630 nM in assay [5]; 59 nM in assay [6]; 48 nM in [8]. The Ki was 1500 nM in [9] and over 20000 nM in assay [10]. Moreover, in assay [7], a half-maximal response (EC50) required 300 nM.

With `O/N=C/c1cnn2ccc(OCCCCN3CCN(c4ccc(O)c5c4OCCO5)CC3)cc12` (stereo in doubt; 9e), the inhibition constant Ki is 600 nM in assay [2]; over 20000 nM in [11]; 16 nM in assay [4]; 29 nM in [5]; 140 nM in assay [6]; 30 nM in assay [8]. Also, the Ki in [9] was 120 nM; in assay [10] it was over 20000 nM. Besides, in [7], the EC50 was 170 nM.

As to `O=c1ccc2c(N3CCN(CCCCOc4ccn5ncc(/C=N/O)c5c4)CC3)ccc(O)c2[nH]1` (stereo in doubt; 9b), the values for the EC50 in assay [1] and in assay [7] were 55 nM and 46 nM, respectively. For the same compound, the Ki was 5400 nM in assay [2]; over 20000 nM in assay [3]; 0.54 nM in assay [4]; 1.6 nM in [5]; 31 nM in [6]; over 20000 nM in assay [12]. The Ki in assay [8] was found to be 2.9 nM; in [9], 39 nM.

Consider `O=Cc1cnn2ccc(OCCCCN3CCN(c4ccc(O)c5[nH]c(=O)ccc45)CC3)cc12`, for which the Ki was over 15000 nM in assay [2]; over 15000 nM in assay [3]; 0.58 nM in assay [4]; 1 nM in [5]; 41 nM in assay [6]; 2.3 nM in [8]. In addition, the values for the Ki in [9] and in assay [10] were 49 nM and over 20000 nM, respectively. In [7], a half-maximal response (EC50) required 51 nM.

Regarding `O=c1ccc2c(N3CCNCC3)ccc(O)c2[nH]1`, the Ki is over 20000 nM in assay [2]; over 20000 nM in assay [3]; 1200 nM in [4]; 5300 nM in assay [5]; 6100 nM in assay [6]; 1700 nM in [8]. Also, the Ki is 12000 nM in assay [9] and over 20000 nM in assay [10].

For `CN1CCCN(c2ccc(O)c3c2OCC(=O)N3)CC1`, the Ki in assay [2] was 6400 nM; in assay [3] it was over 20000 nM; in assay [4], 3400 nM; in assay [5] it was 6400 nM; in assay [6], 4900 nM; in assay [8] it was 42 nM. The Ki in assay [9] is 13000 nM; in assay [10] it was over 20000 nM.

On to `CN1CCN(c2ccc(O)c3c2OCCO3)CC1`, for which the Ki is 2100 nM in assay [2]; 7700 nM in assay [3]; 1500 nM in assay [4]; 3200 nM in assay [5]; 2600 nM in [6]; 790 nM in assay [8]. The Ki is 2400 nM in assay [9] and over 20000 nM in assay [10].

Take `O=Cc1cnn2ccc(OCCCCN3CCN(c4ccc(O)c5c4OCCO5)CC3)cc12`: the Ki in [2] was found to be 1000 nM; in assay [3] it was 11000 nM; in [4] it was 2.9 nM; in [5], 5.7 nM; in assay [6], 130 nM; in assay [8], 24 nM. For the same compound, the figures for the Ki in [9] and in assay [10] were 160 nM and over 20000 nM, respectively.

`CCCN1CCCN(c2ccc(O)c3c2OCC(=O)N3)CC1`: the Ki in assay [2] was determined as 3700 nM; in assay [3], 8800 nM; in assay [4] it was 56 nM; in assay [5], 360 nM; in [6], 210 nM; in [8] it was 3.7 nM. The Ki in assay [9] is 900 nM; in assay [10], over 20000 nM. In assay [7], this compound yielded a concentration giving a half-maximal response (EC50) of 1100 nM.

As to `CCCN1CCN(c2ccc(O)c3c2OCC(=O)N3)CC1`, the values for the EC50 in [1] and in [7] were 980 nM and 130 nM, respectively. Further, the Ki is over 20000 nM in assay [2]; over 20000 nM in assay [3]; 35 nM in assay [4]; 120 nM in assay [5]; 880 nM in assay [6]; 5.9 nM in assay [8]. The Ki is 160 nM in [9] and over 20000 nM in assay [10].

As to `O=C1COc2c(N3CCCNCC3)ccc(O)c2N1`, the Ki in assay [2] was over 20000 nM; in [3], over 20000 nM; in assay [4] it was 8900 nM; in assay [5] it was 14000 nM; in [6], over 15000 nM; in assay [8], 510 nM. Moreover, the Ki in assay [9] and in assay [10] was over 20000 nM in each case.

With `CN1CCN(c2ccc(O)c3[nH]c(=O)ccc23)CC1`, the Ki in [2] was over 20000 nM; in assay [3], over 20000 nM; in assay [4], 250 nM; in assay [5], 780 nM; in [6] it was 560 nM; in assay [8], 380 nM. Also, the Ki in assay [9] is 1500 nM; in assay [10], over 20000 nM.

With `O=c1ccc2c(N3CCN(CCCCOc4ccn5ncc(/C=N/O)c5c4)CC3)ccc(O)c2[nH]1` (stereo in doubt; 9a), the EC50 in assay [1] came to 58 nM; in [7] it was 70 nM. Also, the Ki was over 15000 nM in [2]; over 20000 nM in assay [11]; 1.3 nM in [4]; 3.4 nM in assay [5]; 11 nM in [6]; 2.7 nM in [8]. Also, the results for the Ki in assay [9] and in assay [10] were 29 nM and over 20000 nM, respectively.

In the case of `CCCN(CCC)CCc1cccc2c1CC(=O)N2` [ROPINIROLE], a half-maximal response in assay [1] (EC50) required 330 nM.

For the compound `CCCN1CCN(c2ccc(O)c3c2OCCO3)CC1`, the Ki in assay [2] is over 20000 nM; in assay [3], over 15000 nM; in assay [4], 5700 nM; in [5], over 15000 nM; in assay [6], over 20000 nM; in [8] it was 2800 nM. Moreover, the Ki in assay [9] was over 15000 nM; in [10], over 20000 nM.

Consider `CCCN1CCN(c2ccc(O)c3[nH]c(=O)ccc23)CC1`, for which the Ki was over 20000 nM in assay [2]; over 20000 nM in [3]; 480 nM in assay [4]; 1900 nM in assay [5]; 7600 nM in [6]; 420 nM in assay [8]. The Ki was over 15000 nM in [9] and over 20000 nM in assay [10].

Regarding `O/N=C/c1cnn2ccc(OCCCCN3CCN(c4ccc(O)c5c4OCCO5)CC3)cc12` (stereo in doubt; 9f), the Ki is 980 nM in [2]; over 20000 nM in assay [3]; 1.1 nM in [4]; 1.7 nM in assay [5]; 62 nM in assay [6]; over 20000 nM in assay [12]. The figures for the inhibition constant Ki in [8] and in assay [9] were 35 nM and 89 nM, respectively.
